Laboratory results as given in patent EP3506874B1, “A PERSONAL CARE COMPOSITION” (Unilever N.V., priority 2016, dated 2018).

What was measured:
[1] = Solubility in organic solvents; type: physicochemical; settings: commonly used organic solvents such as alcohols, ethers, esters, acetonitrile, chloroform, dichloromethane, dimethylformamide, dimethylsulfoxide
[2] = test system: Primary adult human keratinocytes (HEKa); test: 2-D Dandruff Model: triple cytokine mix (IL-17, IL-22, TNFα) induced IL-8 by ELISA, normalised to protein; type: cell-based; settings: with triple cytokine mix, mix alone 744.83
Method: Primary adult human keratinocytes (HEKa) frozen at passage 1 were purchased from Invitrogen (Cat no […]). They were thawed into KGM Gold (Lonza cat no 00195769) made up with all components of the accompanying bullet kit plus 70μM calcium (from a stock solution of 200mM calcium chloride), placed in a T75 tissue culture flask and grown to 70-80% confluence. The cells were passaged and again grown to 70-80% confluence. At passage 3 the cells were washed with calcium and magnesium free PBS (Life Technologies cat no 14190-094) and removed from the flask using trypsin-EDTA (Life Technologies cat no 25300-054) and washed by centrifugation with trypsin neutralising solution (Life Technologies cat no R-002-100). The cell pellet was re-suspended in KGM Gold plus 70μM calcium and containing the bullet kit components but omitting the gentamycin and hydrocortisone (referred to as plating medium). The cells were plated into 24-well plates at a density of 2x10^4 cells/well and allowed to settle for 24 hours prior to treatment. The medium is removed from the cells and replace by 0.5ml plating medium containing […], […] and […] TNFα together with the active at the required concentration. A concentration range can be done. Also included are an untreated control, a vehicle control and a triple cytokine mix without active all in triplicate. The plates are incubated for a further 16 to 24 hours. In this case the actives were 6-gingerdiol and a selection of curcuminoids. The medium is harvested for IL-8 ELISA (R &D Systems Duoset kit cat no DY208) and the cells lysed for protein assay (Pierce BCA Protein Assay Kit Life Technologies cat no 23225) in order to normalise IL-8 to protein.

THP1-XBlue™ cells = test: Anti-inflammation THP-1 in vitro assay: LPS-induced IL-6 by ELISA; type: cell-based
Method: The following procedure was used to test the anti-inflammation efficacy of the various actives alone or in combination. THP1-XBlue™ (Cat No: thpx-sp, InvivoGen) cells were cultured as suspense in RPMI 1640 medium supplemented with 10% FBS, penicillin (10 U/mL) - streptomycin (10 µg/ML). Cells were differentiated in 24-well plates at the density of 5 x 10^5 cells / well with 100 nM PMA for 72 h. Cells were then co-treated with pure E. coli lipopolysaccharides (LPS) and single concentration or a combination of 6-gingerdiol and niacinamide at different doses. After 24 h, the supernatants were collected measured for interleukin (IL)-6 as pro-inflammatory bio-marker using enzyme-linked immunosorbent assay (ELISA).

| Compound | solubility [1] | Concentration of IL-8 ([2]; 5 µM of 6-gingerdiol) [pg/100µgprotein] | Concentration of IL-8 ([2]; 10 µM of 6-gingerdiol) [pg/100µgprotein] | Concentration of IL-8 ([2]; 20 µM of 6-gingerdiol) [pg/100µgprotein] | Concentration of IL-6 (THP1-XBlue™ cells; 1.25 µM of 6-gingerdiol, with LPS, LPS alone 46137) [pg/mL] | Concentration of IL-6 (THP1-XBlue™ cells; 10 µM of 6-gingerdiol, co-treated with LPS, 24 h, LPS alone 10547) [pg/mL] | Concentration of IL-8 ([2]; 10 mM of niacinamide) [pg/100µgprotein] | Concentration of IL-6 (THP1-XBlue™ cells; 0.5 mM niacinamide, with LPS, LPS alone 46137) [pg/mL] | Concentration of IL-6 (THP1-XBlue™ cells; 1 mM of niacinamide, with LPS, LPS alone 46137) [pg/mL] | Concentration of IL-6 (THP1-XBlue™ cells; 16 mM of niacinamide, co-treated with LPS, 24 h, LPS alone 10547) [pg/mL] |
| --- | --- | --- | --- | --- | --- | --- | --- | --- | --- | --- |
| CCCCCC(O)CC(O)CCc1ccc(O)c(OC)c1 (stereo not shown) [6-gingerdiol, 1-(4-hydroxy-3-methoxyphenyl)decane-3,5-diol] | soluble | 347.99 | 446.85 | 390.31 | 37212 | 8781 | – | – | – | – |
| NC(=O)c1cccnc1 [niacinamide] | – | – | – | – | – | – | 408.30 | 41688 | 39894 | 6031 |
